Earlier results, collected in US20250249020A1, “COLLOIDALLY STABLE HEME-ALBUMIN COMPLEXES AND METHODS OF MAKING AND USING THEREOF” (Ohio State Innovation Foundation, priority 2022, published 2025).

Target: Hpx
Details: heme binding, background

Kd: ~10 nM
Compound: C=CC1=C(C)c2cc3[n-]c(cc4[n-]c(cc5nc(cc1n2)C(C)=C5C=C)c(C)c4CCC(=O)O)c(CCC(=O)O)c3C.[Fe+2] [heme]
